Measurements published in US9624216B2, “Quinolinone five-membered heterocyclic compounds as mutant-isocitrate dehydrogenase inhibitors” (Forma Therapeutics, Inc., priority 2015, dated 2017).

What was measured:
[1] = molecular target: IDH1-R132H recombinant protein (Homo sapiens, UniProt O75874, R132H); test: IDH1-R132H enzymatic assay (NADPH consumption, diaphorase/resazurin readout); format: biochemical; conditions: 30 nM IDH1-R132H, inhibition of NADPH consumption; read-out: Enzyme IDH1 R132H IC50
Method: (§1) IDH1-R132H and IDH1-R132C Enzymatic Assay
(§2) Assays were performed in a 384-well black plate. An aliquot of 250 nL of compound was incubated with 10 μL of 30 nM IDH1-R132H or 10 nM IDH1-R132C recombinant protein in assay buffer (50 mM Tris pH=7.5, 150 mM NaCl, 5 mM MgCl2, 0.1% (w/v) Bovine Serum Albumin, and 0.01% Triton X-100) in each well at 25° C. for 15 minutes. After the plate was centrifuged briefly, an aliquot of 10 μL of 2 mM α-ketoglutarate and 20 μM NADPH solution prepared in assay buffer was then added to each well and the reaction was maintained at 25° C. for 45 minutes. An aliquot of 10 μL of diaphorase solution (0.15 U/mL diaphorase and 30 μM Resazurin in assay buffer) was added to each well. The plate was maintained at 25° C. for 15 minutes and then read on a plate reader with excitation and emission wavelengths at 535 nm and 590 nm, respectively. The IC50 of a given compound was calculated by fitting the dose response curve of inhibition of NADPH consumption at a given concentration with the four parameter logistic equation.

[2] = molecular target: T1, HCT116 isogenic IDH1-R132C mutant cells (Homo sapiens, UniProt O75874, R132C); test: Cellular 2-HG assay using HCT116 mutant IDH1 cells (R132C); format: cell-based; conditions: cellular 2-HG inhibition, 24 hours, RapidFire mass spectrometry
T1 construct: HCT116 isogenic IDH1-R132H and IDH1-R132C mutant cells; endogenous in cells; host or cells: HCT116 isogenic IDH1-R132C mutant cells (kept under G418)
Method: (§3) Cellular 2-HG Assay Using HCT116 Mutant IDH1 Cells
(§4) HCT116 isogenic IDH1-R132H and IDH1-R132C mutant cells were cultured in growth media (McCoy's 5A, 10% fetal bovine serum, 1× antibiotic-antimycotic solution and 0.3 mg/mL G418) in 5% CO2 in an incubator at 37° C. To prepare the assay, cells were trypsinized and resuspended in assay media (McCoy's 5A with no L-glutamine, 10% fetal bovine serum, 1× antibiotic-antimycotic solution and 0.3 mg/mL G418). An aliquot of 10,000 cells/100 μL was transferred to each well of a clear 96-well tissue culture plate. The cells were incubated in 5% CO2 at 37° C. in an incubator overnight to allow for proper cell attachment. An aliquot of 50 μL of compound containing assay media were then added to each well and the assay plate was kept in 5% CO2 at 37° C. in an incubator for 24 hours. The media was then removed from each well and 150 μL of a methanol/water mixture (80/20 v/v) was added to each well. The plates were kept at −80° C. freezer overnight to allow for complete cell lysis. An aliquot of 125 μL of extracted supernatant was analyzed by RapidFire high-throughout-mass spectrometry (Agilent) to determine the cellular 2-HG level. The IC50 of a given compound was calculated by fitting the dose response curve of cellular 2-HG inhibition at a given concentration with the four parameter logistic equation

[3] = molecular target: IDH1-R132C recombinant protein (Homo sapiens, UniProt O75874, R132C); test: IDH1-R132C enzymatic assay (NADPH consumption, diaphorase/resazurin readout); format: biochemical; conditions: 10 nM IDH1-R132C, inhibition of NADPH consumption; read-out: Enzyme IDH1 R132C IC50
Method: as §1, §2

[4] = molecular target: T2, HCT116 isogenic IDH1-R132H mutant cells (Homo sapiens, UniProt O75874, R132H); test: Cellular 2-HG assay using HCT116 mutant IDH1 cells (R132H); format: cell-based; conditions: cellular 2-HG inhibition, 24 hours, RapidFire mass spectrometry
T2 construct: HCT116 isogenic IDH1-R132H and IDH1-R132C mutant cells; endogenous in cells; host or cells: HCT116 isogenic IDH1-R132H mutant cells (kept under G418)
Method: as §3, §4

T1 sequence (O75874 2-414 R132C limits assumed): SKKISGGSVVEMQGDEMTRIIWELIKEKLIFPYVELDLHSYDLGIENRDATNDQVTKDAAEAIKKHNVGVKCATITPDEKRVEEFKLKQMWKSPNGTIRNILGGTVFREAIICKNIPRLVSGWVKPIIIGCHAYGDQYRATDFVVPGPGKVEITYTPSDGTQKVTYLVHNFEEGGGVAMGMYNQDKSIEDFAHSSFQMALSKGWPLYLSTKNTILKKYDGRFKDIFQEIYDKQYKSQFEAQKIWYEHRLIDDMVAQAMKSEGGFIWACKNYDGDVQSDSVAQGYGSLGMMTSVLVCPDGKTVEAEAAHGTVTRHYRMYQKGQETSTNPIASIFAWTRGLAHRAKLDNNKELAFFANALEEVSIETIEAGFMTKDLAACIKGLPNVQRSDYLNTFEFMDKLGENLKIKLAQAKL
T2 sequence (O75874 2-414 R132H limits assumed): as the sequence (O75874 2-414 R132C limits assumed) above, with C131H counted along it
IDH1-R132H recombinant protein, sequence (O75874 whole entry R132H): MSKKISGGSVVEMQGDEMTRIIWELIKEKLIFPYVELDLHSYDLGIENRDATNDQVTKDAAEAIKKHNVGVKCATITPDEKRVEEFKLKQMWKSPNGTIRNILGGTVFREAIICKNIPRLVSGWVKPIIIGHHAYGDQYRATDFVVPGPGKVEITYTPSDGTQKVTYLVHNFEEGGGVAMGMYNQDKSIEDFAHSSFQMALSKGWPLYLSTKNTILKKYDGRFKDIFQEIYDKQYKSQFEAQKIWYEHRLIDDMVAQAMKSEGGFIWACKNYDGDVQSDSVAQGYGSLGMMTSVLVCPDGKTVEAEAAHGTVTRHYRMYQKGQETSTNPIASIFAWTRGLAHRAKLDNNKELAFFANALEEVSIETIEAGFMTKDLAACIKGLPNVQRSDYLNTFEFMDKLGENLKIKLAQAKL
IDH1-R132C recombinant protein, sequence (O75874 whole entry R132C): as the sequence (O75874 whole entry R132H) above, with H132C counted along it

| SMILES | IC50 [1] | IC50 [2] | IC50 [3] | IC50 [4] | melting point |
| --- | --- | --- | --- | --- | --- |
| Cc1nc(N[C@@H](C)c2cc3cc(Cl)ccc3[nH]c2=O)sc1C#N [Compound I-7, (S)-2-((1-(6-chloro-2-oxo-1,2-dihydroquinolin-3-yl)ethyl)amino)-4-methylthiazole-5-carbonitrile] | < 100 nM | 100 to 1000 nM | 100 to 1000 nM | < 100 nM |  |
| CC(Nc1ncc(C#N)s1)c1cc2cc(Cl)cnc2[nH]c1=O (stereo not drawn) [Compound I-6, 2-((1-(6-chloro-2-oxo-1,2-dihydro-1,8-naphthyridin-3-yl)ethyl)amino)thiazole-5-carbonitrile] | 100 to 1000 nM |  |  |  |  |
| CC(Nc1ncc(C#N)s1)c1cc2cc(Cl)c(OCc3ccccn3)cc2[nH]c1=O (racemic) [Compound I-3, 2-((1-(6-chloro-2-oxo-7-(pyridin-2-ylmethoxy)-1,2-dihydroquinolin-3-yl)ethyl)amino)thiazole-5-carbonitrile] | < 100 nM | < 100 nM | 100 to 1000 nM | 100 to 1000 nM |  |
| C[C@@H](Nc1ncc(C#N)s1)c1cc2cc(Cl)c(OCc3ccccn3)cc2[nH]c1=O [Compound I-5, (R)-2-((1-(6-chloro-2-oxo-7-(pyridin-2-ylmethoxy)-1,2-dihydroquinolin-3-yl)ethyl)amino)thiazole-5-carbonitrile] | 100 to 1000 nM |  | 1000 to 10000 nM |  |  |
| COc1cc2[nH]c(=O)c(C(C)Nc3ncc(C#N)s3)cc2cc1Cl (stereo not drawn) [Compound I-2, 2-((1-(6-chloro-7-methoxy-2-oxo-1,2-dihydroquinolin-3-yl)ethyl)amino)thiazole-5-carbonitrile] | < 100 nM | 100 to 1000 nM | 100 to 1000 nM | < 100 nM |  |
| C[C@H](Nc1ncc(C#N)s1)c1cc2cc(Cl)c(OCc3ccccn3)cc2[nH]c1=O [Compound I-4, (S)-2-((1-(6-chloro-2-oxo-7-(pyridin-2-ylmethoxy)-1,2-dihydroquinolin-3-yl)ethyl)amino)thiazole-5-carbonitrile] | < 100 nM | < 100 nM | < 100 nM | < 100 nM |  |
| CCOC(=O)c1sc(N[C@@H](C)c2cc3cc(Cl)ccc3[nH]c2=O)nc1C [Compound I-9, (S)-ethyl 2-((1-(6-chloro-2-oxo-1,2-dihydroquinolin-3-yl)ethyl)amino)-4-methylthiazole-5-carboxylate] | 1000 to 10000 nM |  |  |  |  |
| CC(=O)Nc1cnc(N[C@@H](C)c2cc3cc(Cl)ccc3[nH]c2=O)s1 [Compound I-8, (S)-N-(2-((1-(6-chloro-2-oxo-1,2-dihydroquinolin-3-yl)ethyl)amino)thiazol-5-yl)acetamide] | 1000 to 10000 nM |  | > 10000 nM |  |  |
| C[C@H](Nc1ncc(C(N)=O)s1)c1cc2cc(Cl)ccc2[nH]c1=O [Compound I-10, (S)-2-((1-(6-Chloro-2-oxo-1,2-dihydroquinolin-3-yl)ethyl)amino)thiazole-5-carboxamide] | 100 to 1000 nM |  | 1000 to 10000 nM |  |  |
| C[C@H](Nc1ncc(C#N)s1)c1cc2cc(Cl)ccc2[nH]c1=O [Compound I-1, (S)-2-((1-(6-chloro-2-oxo-1,2-dihydroquinolin-3-yl)ethyl)amino)thiazole-5-carbonitrile] | < 100 nM | 100 to 1000 nM | 100 to 1000 nM | 100 to 1000 nM | 211 to 213 °C (dec.) |
| Cc1nc(N[C@@H](C)c2cc3cc(Cl)ccc3[nH]c2=O)sc1C(N)=O [Compound I-11, (S)-2-((1-(6-chloro-2-oxo-1,2-dihydroquinolin-3-yl)ethyl)amino)-4-methylthiazole-5-carboxamide] | < 100 nM | 100 to 1000 nM | 100 to 1000 nM | < 100 nM |  |

Continued, in another order:

| IC50 [1] | IC50 [2] | IC50 [3] | IC50 [4] | SMILES | melting point |
| --- | --- | --- | --- | --- | --- |
| 1000 to 10000 nM |  |  |  | O=c1[nH]c2ccc(Cl)cc2cc1CNc1nc(-c2ccc(F)c(F)c2)cs1 [Compound I-14, 6-chloro-3-({[4-(3,4-difluorophenyl)-1,3-thiazol-2-yl]amino}methyl)-1,2-dihydroquinolin-2-one] |  |
| > 10000 nM |  |  |  | COc1ccc2[nH]c(=O)c(CNc3nc(C)c(C)s3)cc2c1 [Compound I-17, 3-{[(dimethyl-1,3-thiazol-2-yl)amino]methyl}-6-methoxy-1,2-dihydroquinolin-2-one] |  |
| > 10000 nM |  |  |  | CCc1c(C)sc(NCc2cc3cc(Cl)ccc3[nH]c2=O)c1C#N [Compound I-16, 2-{[(6-chloro-2-oxo-1,2-dihydroquinolin-3-yl)methyl]amino}-4-ethyl-5-methylthiophene-3-carbonitrile] |  |
| > 10000 nM |  |  |  | C[C@H](Nc1nsc(N2CCOC2=O)n1)c1cc2cc(Cl)ccc2[nH]c1=O [Compound I-12, 6-chloro-3-[(1S)-1-{[5-(2-oxo-1,3-oxazolidin-3-yl)-1,2,4-thiadiazol-3-yl]amino}ethyl]-1,2-dihydroquinolin-2-one] |  |
| 1000 to 10000 nM |  |  |  | O=c1[nH]c2ccc(Cl)cc2cc1CNc1nc(-c2ccccn2)cs1 [Compound I-13, 6-chloro-3-({[4-(pyridin-2-yl)-1,3-thiazol-2-yl]amino}methyl)-1,2-dihydroquinolin-2-one] |  |
| > 10000 nM |  |  |  | COc1ccc2[nH]c(=O)c(CNc3nc4ccccc4s3)cc2c1 [Compound I-15, 3-{[(1,3-benzothiazol-2-yl)amino]methyl}-6-methoxy-1,2-dihydroquinolin-2-one] |  |
